The numbers were not newly measured in patent US12618855B2, “Serum protein biomarker panel for idiopathic pulmonary fibrosis” (Children's Hospital Medical Center, priority 2019, dated 2026), which cites them from elsewhere.

The target in the data set is p110β (Homo sapiens, UniProt P42338). Particulars: p110β compared with p110α, p110-γ and p110-δ (equipotent).
Chain of p110β (P42338 whole entry, species assumed): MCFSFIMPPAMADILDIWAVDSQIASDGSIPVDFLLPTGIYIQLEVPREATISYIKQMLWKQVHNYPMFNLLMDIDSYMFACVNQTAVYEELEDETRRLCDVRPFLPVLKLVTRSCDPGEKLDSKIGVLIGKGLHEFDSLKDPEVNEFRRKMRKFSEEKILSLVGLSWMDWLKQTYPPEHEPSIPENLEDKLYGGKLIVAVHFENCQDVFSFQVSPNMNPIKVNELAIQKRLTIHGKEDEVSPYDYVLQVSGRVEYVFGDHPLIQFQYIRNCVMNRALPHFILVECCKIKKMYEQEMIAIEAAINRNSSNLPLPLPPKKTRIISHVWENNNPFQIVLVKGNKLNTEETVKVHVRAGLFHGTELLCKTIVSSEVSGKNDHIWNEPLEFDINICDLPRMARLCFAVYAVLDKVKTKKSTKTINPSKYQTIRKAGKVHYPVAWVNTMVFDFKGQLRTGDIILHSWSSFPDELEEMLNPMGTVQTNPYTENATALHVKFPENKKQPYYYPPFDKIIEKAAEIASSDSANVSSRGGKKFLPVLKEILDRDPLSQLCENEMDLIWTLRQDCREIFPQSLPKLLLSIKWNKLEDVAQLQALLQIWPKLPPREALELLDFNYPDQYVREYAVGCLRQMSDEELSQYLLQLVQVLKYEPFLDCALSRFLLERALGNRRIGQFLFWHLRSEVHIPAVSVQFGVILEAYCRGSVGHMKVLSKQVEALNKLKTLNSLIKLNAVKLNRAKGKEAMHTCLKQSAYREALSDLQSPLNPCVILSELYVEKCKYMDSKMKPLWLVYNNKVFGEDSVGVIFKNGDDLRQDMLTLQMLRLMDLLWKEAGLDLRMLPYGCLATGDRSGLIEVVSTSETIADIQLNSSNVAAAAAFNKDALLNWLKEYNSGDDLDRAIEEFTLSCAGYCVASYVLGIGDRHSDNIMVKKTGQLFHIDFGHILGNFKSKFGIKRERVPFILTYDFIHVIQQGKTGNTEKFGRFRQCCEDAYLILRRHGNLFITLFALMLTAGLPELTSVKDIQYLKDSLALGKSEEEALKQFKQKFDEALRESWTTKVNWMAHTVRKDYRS
Chain of p110β (P27986 whole entry partner, species assumed): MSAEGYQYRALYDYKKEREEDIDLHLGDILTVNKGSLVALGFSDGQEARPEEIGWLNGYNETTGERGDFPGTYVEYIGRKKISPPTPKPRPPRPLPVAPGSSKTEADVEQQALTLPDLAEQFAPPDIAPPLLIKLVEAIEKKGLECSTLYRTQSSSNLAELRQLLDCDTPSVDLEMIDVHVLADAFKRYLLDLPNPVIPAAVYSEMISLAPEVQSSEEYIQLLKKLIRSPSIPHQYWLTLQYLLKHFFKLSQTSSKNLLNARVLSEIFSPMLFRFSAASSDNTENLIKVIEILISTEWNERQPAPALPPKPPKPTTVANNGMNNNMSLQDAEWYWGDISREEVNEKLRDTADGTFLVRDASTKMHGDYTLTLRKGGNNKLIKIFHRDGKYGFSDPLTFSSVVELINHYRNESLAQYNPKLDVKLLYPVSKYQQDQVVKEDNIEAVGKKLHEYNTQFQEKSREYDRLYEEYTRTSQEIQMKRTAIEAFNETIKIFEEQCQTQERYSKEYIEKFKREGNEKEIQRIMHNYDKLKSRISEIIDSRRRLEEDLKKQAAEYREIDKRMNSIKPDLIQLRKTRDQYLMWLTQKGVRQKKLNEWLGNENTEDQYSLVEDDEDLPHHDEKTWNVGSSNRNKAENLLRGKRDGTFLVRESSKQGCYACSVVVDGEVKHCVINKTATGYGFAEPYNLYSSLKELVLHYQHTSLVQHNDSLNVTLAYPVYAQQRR

Take `Cc1nc(-c2cn3c(n2)-c2ccc(-c4cnn(C(C)(C)C(N)=O)c4)cc2OCC3)n(C(C)C)n1` [Taselisib]: the “lower potency of p110β inhibition” value was 30 fold.
